According to patent publication US5861410A, “Tetrahydro-beta-carbolines” (Eli Lilly and Company, priority 1997, dated 1999):
Structures can show the parent of a compound that is named as a salt.

Assays:
5-HT1c receptor = molecular target: T1, 5-HT1c receptor (Bos taurus, UniProt A0AAA9SBU1); test: Assay for 5-HT1c affinity, radioligand binding (selectivity against 5-HT2 receptor assay); parameters: species or system beef; details: low IC50 in the 5-HT1c receptor assay and a higher IC50 in the 5-HT2 receptor assay
T1 sequence (A0AAA9SBU1 33-457): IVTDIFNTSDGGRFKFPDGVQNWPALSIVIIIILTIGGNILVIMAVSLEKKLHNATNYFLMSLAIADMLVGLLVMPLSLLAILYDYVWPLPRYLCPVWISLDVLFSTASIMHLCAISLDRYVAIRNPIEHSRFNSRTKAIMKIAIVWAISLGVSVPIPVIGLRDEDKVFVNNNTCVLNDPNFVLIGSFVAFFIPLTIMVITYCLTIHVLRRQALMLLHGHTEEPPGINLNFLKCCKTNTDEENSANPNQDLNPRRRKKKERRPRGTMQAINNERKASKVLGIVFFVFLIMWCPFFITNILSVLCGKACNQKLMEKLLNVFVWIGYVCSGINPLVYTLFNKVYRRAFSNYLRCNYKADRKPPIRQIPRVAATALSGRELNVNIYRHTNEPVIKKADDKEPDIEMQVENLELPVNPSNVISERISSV
Experimental: Beef brain was removed immediately after slaughter, and choroid plexus were dissected over ice. […] The brain of each was immediately removed and the cerebral cortex was dissected over ice. Tissues were homogenized in 9 volumes of 0.32 mol/L sucrose and centrifuged at 1,000×g for 10 minutes. The supernatant was centrifuged at 17,000 x g for 20 minutes. The pellet was suspended in 100 volumes of 50 mM Tris-HCl (pH7.4), incubated at 37° C. for 10 minutes and centrifuged at 50,000×g for 10 minutes, and the process was repeated three times. The final pellets were frozen at -70° C. and used within 2 weeks. Pellets were rehydrated with physiological buffer prior to use.
For 5-HT1c receptor assays increasing concentrations of experimental compound, 50 mM Tris HCl buffer pH 7.4 , and tritiated mesulergine (2.0 nM) (^3 H ligand) were combined in polystyrene tubes at room temperature. The reaction was initiated by the addition of the resuspended choroid plexus tissue which had been preincubated at 37° C. for 20 minutes. The reaction mixture was incubated in a 37° C. water bath for 15 minutes.
The reactions were terminated by rapid filtration, (Brandel Cell Harvestor), through Whatman GF/B glass filters that had been presoaked in Tris buffer pH 7.4. The filters were then washed 2 times with 5 ml of ice cold Tris buffer pH 7.4. Washed filters were placed in scintillation vials and 10 ml RedySolv, (Brandel), was added and samples were counted in a Searle D-300 beta counter. Means and standard error statistics were calculated for triplicate experimental determinations in certain cases. Mean values were obtained from three or more separate determinations. The incubation time for the reaction mixture was 15 minutes at 37° C.

5HT2B = molecular target: T2, 5HT2B (Homo sapiens, UniProt P41595); test: Cell assay using human cells, 5HT2B (radioligand binding); details: Table I
T2 construct: expressed in transfected cells
T2 sequence (P41595 whole entry): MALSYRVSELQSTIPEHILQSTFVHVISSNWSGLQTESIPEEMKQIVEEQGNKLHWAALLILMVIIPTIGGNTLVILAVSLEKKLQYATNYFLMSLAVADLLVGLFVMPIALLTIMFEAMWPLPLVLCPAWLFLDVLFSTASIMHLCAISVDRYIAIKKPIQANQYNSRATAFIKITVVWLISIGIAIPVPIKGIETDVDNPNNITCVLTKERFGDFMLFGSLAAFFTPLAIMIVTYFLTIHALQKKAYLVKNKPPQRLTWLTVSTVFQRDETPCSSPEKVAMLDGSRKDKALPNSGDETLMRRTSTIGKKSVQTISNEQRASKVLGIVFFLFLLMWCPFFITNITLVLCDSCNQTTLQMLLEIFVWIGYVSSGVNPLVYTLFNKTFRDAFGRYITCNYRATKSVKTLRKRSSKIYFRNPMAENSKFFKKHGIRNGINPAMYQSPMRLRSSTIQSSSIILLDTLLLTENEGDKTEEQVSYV

5HT2A = molecular target: T3, 5HT2A (Homo sapiens, UniProt P28223); test: Cell assay using human cells, 5HT2A; type: binding; details: Table I
T3 construct: expressed in transfected cells
T3 sequence (P28223 whole entry): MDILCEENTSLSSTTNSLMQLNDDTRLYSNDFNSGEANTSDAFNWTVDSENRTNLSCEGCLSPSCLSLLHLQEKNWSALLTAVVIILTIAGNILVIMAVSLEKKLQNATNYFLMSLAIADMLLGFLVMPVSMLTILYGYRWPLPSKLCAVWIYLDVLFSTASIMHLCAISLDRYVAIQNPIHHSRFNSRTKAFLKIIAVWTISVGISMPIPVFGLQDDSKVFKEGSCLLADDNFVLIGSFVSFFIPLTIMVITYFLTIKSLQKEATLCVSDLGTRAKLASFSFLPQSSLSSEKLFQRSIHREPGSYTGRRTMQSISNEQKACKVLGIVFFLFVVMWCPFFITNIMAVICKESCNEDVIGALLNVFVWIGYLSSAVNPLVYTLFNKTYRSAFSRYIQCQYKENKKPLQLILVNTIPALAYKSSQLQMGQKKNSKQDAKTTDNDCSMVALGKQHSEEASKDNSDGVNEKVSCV
Experimental: (§1) The Kd and Bmax values from the saturation assays were determined for best fit to a one-site or a two-site binding model using a partial F-test. De Lean, A., A. A. Hancock, and R. J. Lefkowitz, Mol. Pharmacol. 21:5-16 (1981). The following equation was used for a one-site binding model, [formula] where Bound=amount of [^3 H]5-HT specifically bound, Bmax =maximum number of binding sites, Kd =equilibrium dissociation constant and [L]=free concentration of [^3 H]5-HT, or a two-site binding model, [formula] where Bound=amount of [^3 H]5-HT specifically bound, Bmax1 =maximum number of high affinity binding sites, Bmax2 =maximum number of low affinity binding sites, Kd1 =equilibrium dissociation constant for the high affinity site, Kd2 =equilibrium dissociation constant for the low affinity site and [L]=free concentration of [^3 H]5-HT. The IC50 values from the competition assays, the binding parameters for the IP3 standard curve and the EC50 and Emax values from the IP3 assays were determined by nonlinear regression analysis of four parameter logistic equations (Systat, Systat Inc, Evanston, Ill.). De Lean, A., A. A. Hancock, and R. J. Lefkowitz, Mol. Pharmacol., 21:5-16 (1981). The IC50 values were converted to Ki values using the Cheng-Prusoff equation. Cheng, Y., and W. H. Prusoff, Biochem. Pharmacol., 22:3099-3108 (1973).
(§2) The following Cell assays use Human Cells

5HT2C = molecular target: T4, 5HT2C (Homo sapiens, UniProt P28335); test: Cell assay using human cells, 5HT2C; type: binding; details: Table I
T4 construct: expressed in transfected cells
T4 sequence (P28335 33-458): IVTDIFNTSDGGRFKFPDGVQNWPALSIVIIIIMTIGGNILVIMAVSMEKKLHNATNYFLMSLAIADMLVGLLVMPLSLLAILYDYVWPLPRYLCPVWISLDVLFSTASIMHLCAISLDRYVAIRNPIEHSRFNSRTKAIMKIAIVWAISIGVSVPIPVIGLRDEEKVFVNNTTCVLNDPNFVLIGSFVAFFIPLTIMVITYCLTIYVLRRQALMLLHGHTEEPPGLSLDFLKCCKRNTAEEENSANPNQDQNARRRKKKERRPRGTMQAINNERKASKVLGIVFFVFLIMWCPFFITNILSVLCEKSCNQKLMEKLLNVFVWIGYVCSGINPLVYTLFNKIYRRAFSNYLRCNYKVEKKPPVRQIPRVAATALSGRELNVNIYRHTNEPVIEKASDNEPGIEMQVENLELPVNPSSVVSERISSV
Experimental: as §1, §2

| Ki (5HT2B) [nM] | Ki (5HT2A) [nM] | Ki (5HT2C) [nM] | SMILES | 5-HT1c selective (5-HT1c receptor) | Ki (5HT2B; hydrochloride) [nM] | Ki (5HT2A; hydrochloride) [nM] | Ki (5HT2C; hydrochloride) [nM] |
| --- | --- | --- | --- | --- | --- | --- | --- |
| – | – | – | Cc1ccc2[nH]cc([C@@H]3CCCC[C@H]3N)c2c1.Cl (relative stereo) [Example 3, Trans-3-(2-amino-cyclohexyl)-5-methylindole, hydrochloride] | particularly 5-HT1c selective | – | – | – |
| – | – | – | Cl.N[C@@H]1CCCC[C@H]1c1c[nH]c2c(Cl)cccc12 (relative stereo) [Example 4, Trans-3-(2-amino-cyclohexyl)-7-chloroindole, hydrochloride] | particularly 5-HT1c selective | – | – | – |
| – | – | – | Cc1ccc2[nH]c3c(c2c1)[C@@H]1CCCC[C@H]1NC3 (relative stereo) [Example 6, Trans-10-methyl-2,3,4,4a,5,6,7,11c-octahydro-1H-indolo[2,3-c] quinoline, hydrochloride] | particularly 5-HT1c selective | – | – | – |
| 9.56 | 124 | 221 | COc1ccc(CC2N[C@@H]3CCC[C@H]3c3c2[nH]c2ccc(C)cc32)cc1OC (relative stereo) [Example 8, Trans-5-(3,4-dimethoxybenzyl)-9-methyl-1,2,3,4,4a,5,6,10c-octahydrocyclopenta[a]pyrido [3,4-b]indole, hydrochloride] | – | – | – | – |
| 106 | 556 | 1120 | COc1ccc(CC2N[C@@H]3CCC[C@H]3c3c2[nH]c2c(C)cc(C)cc32)cc1OC (relative stereo) [Example 10, Trans-5-(3,4-dimethoxybenzyl)-7,9-dimethyl-1,2,3,4,4a,5,6,10c-octahydrocyclopenta[a]pyrido [3,4-b]indole, hydrochloride] | particularly 5-HT1c selective | – | – | – |
| 16.4 | 293 | 352 | COc1ccc(CC2N[C@@H]3CCCC[C@H]3c3c2[nH]c2ccc(C)cc32)cc1OC (relative stereo) [Example 11, Trans-6-(3,4-dimethoxybenzyl)-10-methyl-2,3,4,4a,5,6,7,11c-octahydro-1H-indolo[2,3-c]quinoline, hydrochloride] | – | – | – | – |
| 121 | 172 | 783 | COc1ccc(CC2N[C@@H]3CCCC[C@H]3c3c2[nH]c2c(Cl)cccc32)cc1OC (relative stereo) [Example 12, Trans-8-chloro-6-(3,4-dimethoxybenzyl)-2,3,4,4a,5,6,7,11c-octahydro-1H-indolo[2,3-c]quinoline, hydrochloride] | – | – | – | – |
| 168 | 917 | 2170 | COc1ccc(CC2N[C@@H]3CCCC[C@H]3c3c2[nH]c2c(C)cc(C)cc32)cc1OC (relative stereo) [Example 13, Trans-6-(3,4-dimethoxybenzyl)-8,10-dimethyl-2,3,4,4a,5,6,7,11c-octahydro-1H-indolo[2,3-c]quinoline, hydrochloride] | particularly 5-HT1c selective | – | – | – |
| 3520 | 1450 | 9250 | COc1ccc(CC2N[C@@H]3CCCCC[C@H]3c3c2[nH]c2ccc(C)cc32)cc1OC (relative stereo) [Example 14, Trans-7-(3,4-dimethoxybenzyl)-11-methyl-1,2,3,4,5,5a,6,7,8,12a-decahydrocyclohepta[a]pyrido[3,4-b]indole, hydrochloride] | – | – | – | – |
| – | – | – | Cc1ccc2[nH]c3c(c2c1)[C@@H]1CCCC[C@H]1NC3Cc1cccc2ccccc12 (relative stereo) [Example 16, Trans-10-methyl-6-(1-naphthylmethyl)-2,3,4,4a,5,6,7,11c-octahydro-1H-indolo[2,3-c]quinoline, hydrochloride] | particularly 5-HT1c selective | – | – | – |
| 367 | 264 | 1110 | Cc1cc(C)c2[nH]c3c(c2c1)[C@@H]1CCCC[C@H]1NC3Cc1cccc2ccccc12 (relative stereo) [Example 17, Trans-8,10-dimethyl-6-(1-naphthylmethyl)-2,3,4,4a,5,6,7,11c-octahydro-1H-indolo[2,3-c]quinoline, hydrochloride] | – | – | – | – |
| – | – | – | COc1cc2c(cc1OC)CC1(CC2)N[C@H]2CCCC[C@@H]2c2c1[nH]c1ccc(C)cc21 (relative stereo) [Example 18, Trans-spiro-6,6-[2-(3,4-dimethoxy)-1,2,3,4-tetrahydronaphthyl]-10-methyl-2,3,4,4a,5,6,7,11a-octahydro-1 H-indolo[2,3-c]quinidine, hydrochloride] | – | 178 | 363 | 325 |
| – | – | – | COc1cc2c(cc1OC)CC1(CC2)N[C@H]2CCCC[C@@H]2c2c1[nH]c1ccc(C)cc21 (single isomer, unassigned; isomer 18) [Isomer 18(1), Trans-spiro-6,6-[2-(3,4-dimethoxy)-1,2,3,4-tetrahydronaphthyl]-10-methyl-2,3,4,4a,5,6,7,11a-octahydro-1 H-indolo[2,3-c]quinidine, hydrochloride] | – | 143 | 153 | 138 |
| – | – | – | COc1cc2c(cc1OC)CC1(CC2)N[C@H]2CCCC[C@@H]2c2c1[nH]c1ccc(C)cc21 (single isomer, unassigned; isomer 18) [Isomer 18(2), Trans-spiro-6,6-[2-(3,4-dimethoxy)-1,2,3,4-tetrahydronaphthyl]-10-methyl-2,3,4,4a,5,6,7,11a-octahydro-1 H-indolo[2,3-c]quinidine, hydrochloride] | – | 2890 | 1970 | 6210 |

| SMILES | Ki (5HT2B) [nM] | Ki (5HT2A) [nM] | Ki (5HT2C) [nM] | 5-HT1c selective (5-HT1c receptor) | Ki (5HT2B; hydrochloride) [nM] | Ki (5HT2A; hydrochloride) [nM] | Ki (5HT2C; hydrochloride) [nM] |
| --- | --- | --- | --- | --- | --- | --- | --- |
| Clc1cccc2c3c([nH]c12)CN[C@@H]1CCCC[C@@H]31 (relative stereo) [Example 7, Trans-8-chloro-2,3,4,4a,5,6,7,11c-octahydro-1 H-indolo[2,3-c]quinoline, hydrochloride] | 668 | 278 | 977 | particularly 5-HT1c selective | – | – | – |
| COc1ccc(CC2N[C@@H]3CCC[C@H]3c3c2[nH]c2c(Cl)cccc32)cc1OC (relative stereo) [Example 9, Trans-7-chloro-5-(3,4-dimethoxybenzyl)-1,2,3,4,4a,5,6,10c-octahydrocyclopenta[a]pyrido [3,4-b]indole, hydrochloride] | 52.5 | 53.6 | 203 | – | – | – | – |
| Cc1ccc2[nH]c3c(c2c1)[C@@H]1CCC[C@H]1NC3Cc1cccc2ccccc12 (relative stereo) [Example 15, Trans-9-methyl-5-(1-naphthylmethyl)-1,2,3,4,4a,5,6,10c-octahydrocyclopenta[a]pyrido [3,4]-blindole, hydrochloride] | – | 33 | 52.1 | – | – | – | – |
